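Interpolation was linear, between the two tested concentrations surrounding the appropriate level; five concentrations were tested over 48 hours in 96-well plates. At the GI50, growth is halved.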 The source made the active and inactive calls. Cut-off read from the data, not from the text of the source: active = GI50 up to about 1.1 µM and inactive = higher.
Experiments:
Assay in all cases: DTP human tumour cell line panel, 48 h
NCI-H460 = tested on: NCI-H460
SN12C = tested on: SN12C
SF-295 = tested on: SF-295
OVCAR-8 = tested on: OVCAR-8
BT-549 = tested on: BT-549
RPMI-8226 = tested on: RPMI-8226
SR = tested on: SR
TK-10 = tested on: TK-10
PC-3 = tested on: PC-3
SNB-19 = tested on: SNB-19
MOLT-4 = tested on: MOLT-4
UO-31 = tested on: UO-31
NCI/ADR-RES = tested on: NCI/ADR-RES
SK-OV-3 = tested on: SK-OV-3
SNB-75 = tested on: SNB-75
HCC 2998 = tested on: HCC 2998
KM12 = tested on: KM12
DU-145 = tested on: DU-145
HCT-116 = tested on: HCT-116
HL-60 = tested on: HL-60
SW-620 = tested on: SW-620
MDA-MB-231 = tested on: MDA-MB-231
SF-268 = tested on: SF-268
NCI-H23 = tested on: NCI-H23
HT-29 = tested on: HT-29
T47D = tested on: T47D
A549 = tested on: A549
Malme-3M = tested on: Malme-3M
UACC-257 = tested on: UACC-257
A498 = tested on: A498
COLO 205 = tested on: COLO 205
SF-539 = tested on: SF-539
OVCAR-4 = tested on: OVCAR-4
RXF 393 = tested on: RXF 393
NCI-H522 = tested on: NCI-H522
SK-MEL-28 = tested on: SK-MEL-28
MDA-MB-435 = tested on: MDA-MB-435
MCF7 = tested on: MCF7
U-251 = tested on: U-251
OVCAR-5 = tested on: OVCAR-5
CCRF-CEM = tested on: CCRF-CEM
SK-MEL-5 = tested on: SK-MEL-5
Hs-578T = tested on: Hs-578T
LOX IMVI = tested on: LOX IMVI
OVCAR-3 = tested on: OVCAR-3
786-0 = tested on: 786-0
CAKI-1 = tested on: CAKI-1
HOP-62 = tested on: HOP-62
HOP-92 = tested on: HOP-92
NCI-H226 = tested on: NCI-H226
IGROV-1 = tested on: IGROV-1
HCT-15 = tested on: HCT-15
EKVX = tested on: EKVX
UACC-62 = tested on: UACC-62
ACHN = tested on: ACHN
K562 = tested on: K562
M14 = tested on: M14
MDA-N = tested on: MDA-N

SMILES: COC(=O)[C@@H]1C[C@@]2(C3C=CN(C(=O)C(F)(F)F)C=C3)c3ccccc3N(C(=O)C(F)(F)F)[C@H]2N1C(=O)OC
- GI50 (NCI-H460): > 100 µM (inactive)
- GI50 (SN12C): 56.9 µM (inactive)
- GI50 (SF-295): > 100 µM (inactive)
- GI50 (OVCAR-8): > 100 µM (inactive)
- GI50 (BT-549): 33.3 µM (inactive)
- GI50 (RPMI-8226): 42.1 µM (inactive)
- GI50 (SR): 53.8 µM (inactive)
- GI50 (TK-10): 16.9 µM (inactive)
- GI50 (PC-3): 70.8 µM (inactive)
- GI50 (SNB-19): 71.6 µM (inactive)
- GI50 (MOLT-4): 61.5 µM (inactive)
- GI50 (UO-31): > 100 µM (inactive)
- GI50 (NCI/ADR-RES): > 100 µM (inactive)
- GI50 (SK-OV-3): > 100 µM (inactive)
- GI50 (SNB-75): 20.1 µM (inactive)
- GI50 (HCC 2998): 57.8 µM (inactive)
- GI50 (KM12): > 100 µM (inactive)
- GI50 (DU-145): > 100 µM (inactive)
- GI50 (HCT-116): > 100 µM (inactive)
- GI50 (HL-60): 30.9 µM (inactive)
- GI50 (SW-620): 47.3 µM (inactive)
- GI50 (MDA-MB-231): > 100 µM (inactive)
- GI50 (SF-268): 43 µM (inactive)
- GI50 (NCI-H23): > 100 µM (inactive)
- GI50 (HT-29): > 10 µM (inactive)
- GI50 (T47D): 46.7 µM (inactive)
- GI50 (A549): > 100 µM (inactive)
- GI50 (Malme-3M): > 100 µM (inactive)
- GI50 (UACC-257): > 100 µM (inactive)
- GI50 (A498): > 100 µM (inactive)
- GI50 (COLO 205): > 100 µM (inactive)
- GI50 (SF-539): > 100 µM (inactive)
- GI50 (OVCAR-4): 93.3 µM (inactive)
- GI50 (RXF 393): 24.5 µM (inactive)
- GI50 (NCI-H522): 26.8 µM (inactive)
- GI50 (SK-MEL-28): 39.1 µM (inactive)
- GI50 (MDA-MB-435): 44.8 µM (inactive)
- GI50 (MCF7): 51.8 µM (inactive)
- GI50 (U-251): 43 µM (inactive)
- GI50 (OVCAR-5): > 100 µM (inactive)
- GI50 (CCRF-CEM): 31.7 µM (inactive)
- GI50 (SK-MEL-5): 70 µM (inactive)
- GI50 (Hs-578T): 49.7 µM (inactive)
- GI50 (LOX IMVI): 44.5 µM (inactive)
- GI50 (OVCAR-3): 90.8 µM (inactive)
- GI50 (786-0): 54 µM (inactive)
- GI50 (CAKI-1): 65.3 µM (inactive)
- GI50 (HOP-62): 49.5 µM (inactive)
- GI50 (HOP-92): 34.1 µM (inactive)
- GI50 (NCI-H226): > 100 µM (inactive)
- GI50 (IGROV-1): > 100 µM (inactive)
- GI50 (HCT-15): 88.1 µM
- GI50 (EKVX): > 100 µM (inactive)
- GI50 (UACC-62): 32.1 µM (inactive)
- GI50 (ACHN): > 100 µM (inactive)
- GI50 (K562): 47.8 µM (inactive)
- GI50 (M14): > 100 µM (inactive)

SMILES: O=C(NCCCCN(CCCNC(=O)C(F)(F)F)Cc1ccc2ccccc2c1)C(F)(F)F
- GI50 (NCI-H460): 16.4 µM (inactive)
- GI50 (SN12C): 16.1 µM (inactive)
- GI50 (SF-295): 16.7 µM (inactive)
- GI50 (MDA-N): 17.4 µM (inactive)
- GI50 (OVCAR-8): 16.9 µM (inactive)
- GI50 (BT-549): 17.1 µM (inactive)
- GI50 (RPMI-8226): > 10 µM (inactive)
- GI50 (TK-10): 20.4 µM (inactive)
- GI50 (SNB-19): 14 µM (inactive)
- GI50 (MOLT-4): 24.2 µM (inactive)
- GI50 (UO-31): 8.04 µM (inactive)
- GI50 (NCI/ADR-RES): 14.5 µM (inactive)
- GI50 (SK-OV-3): 23 µM (inactive)
- GI50 (SNB-75): 11.5 µM (inactive)
- GI50 (HCC 2998): 13.9 µM (inactive)
- GI50 (KM12): 17.5 µM (inactive)
- GI50 (DU-145): 21 µM (inactive)
- GI50 (HCT-116): 16 µM (inactive)
- GI50 (HL-60): 65.2 µM (inactive)
- GI50 (SW-620): 15.3 µM (inactive)
- GI50 (MDA-MB-231): 16.7 µM (inactive)
- GI50 (SF-268): 16 µM (inactive)
- GI50 (NCI-H23): 20.1 µM (inactive)
- GI50 (HT-29): 13.7 µM (inactive)
- GI50 (T47D): 17.7 µM (inactive)
- GI50 (A549): 30.4 µM (inactive)
- GI50 (Malme-3M): 15.3 µM (inactive)
- GI50 (UACC-257): 17.5 µM (inactive)
- GI50 (A498): 20.3 µM (inactive)
- GI50 (COLO 205): 14.9 µM (inactive)
- GI50 (SF-539): 16.3 µM (inactive)
- GI50 (OVCAR-4): 17.6 µM (inactive)
- GI50 (RXF 393): 17.5 µM (inactive)
- GI50 (NCI-H522): 18.2 µM (inactive)
- GI50 (SK-MEL-28): 16.7 µM (inactive)
- GI50 (MDA-MB-435): 19.3 µM (inactive)
- GI50 (MCF7): 14.7 µM (inactive)
- GI50 (U-251): 26.4 µM (inactive)
- GI50 (OVCAR-5): 17.2 µM (inactive)
- GI50 (CCRF-CEM): > 10 µM (inactive)
- GI50 (SK-MEL-5): 19.2 µM (inactive)
- GI50 (Hs-578T): 17.7 µM (inactive)
- GI50 (LOX IMVI): 14.1 µM (inactive)
- GI50 (786-0): 15.6 µM (inactive)
- GI50 (CAKI-1): 14.3 µM (inactive)
- GI50 (HOP-92): 16.7 µM (inactive)
- GI50 (NCI-H226): 17.3 µM (inactive)
- GI50 (IGROV-1): 17.2 µM (inactive)
- GI50 (HCT-15): 17.3 µM
- GI50 (EKVX): 16.4 µM (inactive)
- GI50 (UACC-62): 19.1 µM (inactive)
- GI50 (ACHN): 24.3 µM (inactive)
- GI50 (K562): 16.7 µM (inactive)
- GI50 (M14): 16.7 µM (inactive)
